The record followed here is a melting point compilation (Tetko et al.; mined from patent text by program, amines drawn as free bases though some values may be those of a salt).

Residues, ends and D or L forms follow the SMILES beside them. *: point of attachment. Tos = Cc1ccc(S(=O)(=O)*)cc1 Where only a bound is given, the exact number is not on record here.

As to `CC(=O)N1CCN(Cc2cnc(-c3cc4c(Cl)ccc(N(C)S(=O)(=O)c5cccs5)c4[nH]3)s2)CC1`, the melting point lay in the range of 224 to 225 °C. The figure for `NC(=O)N(O)Cc1ccc(Cl)s1` is 138 to 140 °C; for `O=C(NCCO)c1cccc(-c2ccc3c(c2)N(c2cccc(Cl)c2Cl)CC3)c1` it is 162 to 163 °C; for `CC(=O)Nc1c(C(=O)c2ccccc2)[nH]c2ccc(N)cc12` it is 254 to 256 °C. The figure for `Oc1ccc(C2=CCCCCCC2)cc1` is 95 to 97 °C; for `O=c1ccn(-c2cc3[nH]c(=O)c(=O)[nH]c3cc2[N+](=O)[O-])cc1[N+](=O)[O-]` it is greater than 300 °C; for `O=C(Nc1ccc2c(c1)CN(C(=O)OCc1ccccc1)CC2)OCc1ccccc1` it is 113 to 115 °C. As to `c1ccc(C(CCN2CC3CCC(CC3)C2)(c2ccccc2)c2nnn[nH]2)cc1`, the melting point lay within 284 to 286 °C. The figure for `CN1C(=O)c2cc(CCc3ccncc3)cnc2N(C2CC2)c2nc(Cl)ccc21` is 218 to 219 °C; for `CSc1nnc(-c2ccccc2Nc2c(Cl)ccc(C)c2Cl)o1` it is 170 to 171 °C; for `CC(=O)c1c(Nc2ccccc2)n[nH]c1C` it is 246 to 247 °C.

Compound `O=C1NC(=O)C(Cc2ccc([N+](=O)[O-])cc2)N1` (configuration not stated) returned a melting point greater than 235 °C. The figure for `CCOP(=O)(Cc1ccc(NC(=O)c2cc(=O)c3ccccc3o2)cc1)OCC` is 153 to 154 °C; for `CCOC(=O)C1=C(C)N=C(SCc2ccc(OC)cc2)N(C(=O)c2ccc([N+](=O)[O-])cc2)C1c1cccc([N+](=O)[O-])c1` (configuration not stated) it is 121 to 123 °C; for `CCCCCCCSC[C@H](N[C@@H](C)C(=O)O)C(=O)OCC` it is 124 to 126 °C. The compound `O=C(O)c1cc(C(=O)O)c(C(O)=NCc2ccc(C(F)(F)F)cc2)cc1C(O)=NCc1ccc(C(F)(F)F)cc1` registered a melting point of 263 to 264 °C.

On to `CN(C)c1cc(OC(F)(F)F)cc2sc(N)nc12`, for which the melting point was 184 °C.

For `CCOC(=O)CCCNC1=NS(=O)(=O)c2ccccc21`, the melting point was in the range of 125 to 127 °C.

On to `O=C(CC(c1ccccc1)c1ccccc1)NC(Cc1ccccc1)C(=O)O` (configuration not stated), for which the melting point is 138 to 140 °C. In the case of `COc1cc(C(C)=O)cc(C#N)c1OC`, the melting point fell in the range of 125 to 126 °C.

`COc1cc(OC)nc(NC(=O)CC(F)=C(F)F)n1`: the melting point was 127 to 130 °C. For the compound `O=C(C(=C1NCCCS1)[N+](=O)[O-])c1ccccc1`, the melting point fell in the range of 137 to 140 °C. For `C=C1OC(=NN)C(c2ccccc2)C(=O)N1C(C)(C)C(=O)Nc1cc(Cl)cc(Cl)c1` (configuration not stated), the melting point lay within 146 to 149 °C. `CC1(c2ccc(O)c(O)c2)C(=O)Nc2ccccc2C1=O` (configuration not stated) returned a melting point of 259 to 261 °C. For `CCCc1c(C#CCCCCOc2ccccc2CCC(=O)O)ccc2c1OCCC2=O`, the melting point is 88 to 92 °C.

`O=[N+]([O-])CS(=O)(=O)c1cccc2c1sc1ccccc12`: the melting point lay in the range of 145 to 146 °C. With `CCn1nc(O)nc1S`, the melting point is 193 to 195 °C. The figure for `Cc1cccc(C(=O)Nc2c[nH]nc2C(=O)NCCO)n1` is 252 to 253 °C. In the case of `COCC(=O)c1cc(-c2ccc(S(C)(=O)=O)cc2)n(-c2ccc(F)cc2)n1`, the melting point lay in the range of 151 to 154 °C. The figure for `CNc1nc(=O)c2cccnc2n1Cc1ccc(F)cc1` is 242 to 246 °C; for `O=[N+]([O-])c1cc(Br)ccc1NCC(F)(F)F` it is 118 to 120 °C; for `CC(C#N)(COc1cc(C#N)ccc1C(F)(F)F)NC(=O)c1ccc(OC(F)(F)F)cc1` (configuration not stated) it is 75 to 78 °C. The result for `CN1CSC(=Cc2cc(C(C)(C)C)c(O)c(C(C)(C)C)c2)C1=O` reads 142 to 144 °C. The figure for `CC(Cl)CC1Oc2ncccc2C(=S)NC1C` (configuration not stated) is 95 to 97 °C; for `O=C(Nc1ccc(-n2nc(C(F)(F)F)cc2OC(F)F)cc1)c1ccncc1` it is 154 to 155 °C; for `CN(C)CCCc1nc2ccccc2[nH]1` it is 117 to 119 °C. Turning to `OC1c2ccc(Cl)cc2SC1Cn1ccnc1` (configuration not stated), the melting point was 164 to 165 °C. `Cn1nc(-c2ccccc2)c(Sc2ccccc2)c1-c1ccccc1`: the melting point was in the range of 109 to 110 °C. `O=[N+]([O-])c1ccccc1C(O)c1cc2c(Oc3ccc(Cl)cc3)cncc2s1` (configuration not stated) showed a melting point of 85 to 90 °C. As for `COc1c(F)cc(NN)cc1F`, the melting point was in the range of 60.5 to 62.3 °C. The figure for `O=Cc1ccc2c(c1)ncn2-c1cccc(-c2cccnc2)c1` is 200 to 202 °C. The result for `O=C(CC1CCN(Cc2ccccc2)CC1)c1ccc(CO)cc1` reads 154 to 155 °C; that for `Cc1ccccc1CN1CCN(C(=O)c2ccc(N(CCOC(C)C)C(=O)CCl)cc2)CC1`, 142 to 143 °C; that for `CCS(=O)(=O)CCC(=O)NNC(=O)N1Cc2cc(Cl)ccc2Oc2ccc(Cl)cc21`, 189 to 190 °C. The result for `Cc1ccc(S(=O)(=O)N2CCC[C@H]2C(=O)N[C@@H](CC(N)=O)C(=O)O)cc1` (Tos-Pro-Asn-OH) reads 178 to 180 °C; that for `COC(=O)C1=C(C)N=C(C)C(C(=O)OC)C(c2ccccc2)C1` (configuration not stated), 135 to 137 °C; that for `OC(CNCCNc1ncnc2nc[nH]c12)COc1ccccc1` (configuration not stated), 169 to 170 °C. `CCCCCC(=O)C=[PH2]c1ccccc1` registered a melting point of 73 to 74 °C. In the case of `CC1=C(C(=O)OCC2CCN(Cc3ccccc3)C2)C(c2cccc([N+](=O)[O-])c2)c2c(ccnc2OC(C)C)N1` (configuration not stated), the melting point is 125 to 128 °C. With `CN(C)C(=O)OC1c2nccnc2C(=O)N1c1ccc2ccc(Cl)nc2n1` (configuration not stated), the melting point came out at 270 °C. Compound `COc1cc2nc(N)nc(-c3cccc(I)c3)c2cc1OC` yielded a melting point of 235 to 242 °C. The result for `CS(=O)(=O)c1ccc(C(=O)O)c(Cl)c1-c1nccs1` reads 288 to 290 °C; that for `Cc1ccc(C2(O)CCN(CCCc3nnc4n3CCCCC4)CC2)cc1`, 160 to 161 °C; that for `Nc1nnc(-c2cc3c(Oc4ccc(Br)cc4)cncc3s2)o1`, 270 to 273 °C.

As to `CS(=O)(=O)NC1CCCOc2ccc([N+](=O)[O-])cc21` (configuration not stated), the melting point is 96 to 98 °C. Compound `CC(=O)c1c(-c2ccc(Cl)cc2)c(-c2ccc(Cl)cc2)nn(CCN(C)C)c1=O` came in with a melting point of 149 to 150 °C.

In the case of `Cn1cc(C2=C(c3cn(CCCSc4ncccn4)c4ccccc34)C(=O)NC2=O)c2ccccc21`, the melting point lay within 125 to 127 °C. The figure for `Cc1c(Cc2ccccc2)c2c(c(C)c1NC(=O)CC(C)(C)C)C(c1ccc(C(C)C)cc1)CO2` (configuration not stated) is 153 to 154 °C.

Regarding `COc1c(N2CCC(N)C(C)(C)C2)c(F)cc2c(=O)c(C(=O)O)cn(C3CC3)c12` (configuration not stated), the melting point fell in the range of 222 to 224 °C. The result for `NS(=O)(=O)CCCSc1ccc2ncnn2n1` reads 130 to 131 °C. `CC(=O)OC1CSC(Oc2cnccc2-c2ccoc2)C(OC(C)=O)C1OC(C)=O` (configuration not stated): the melting point was found to be 167 °C. For the compound `COC(=O)C(C)Oc1ccc(Oc2cnc3cc(Cl)c(Cl)cc3n2)cc1` (configuration not stated), the melting point lay in the range of 100 to 105 °C. The result for `CN(C)c1ccc(C2=CCC(C)(C)c3cc(C(O)C#Cc4ccc(C(=O)O)cc4)ccc32)cc1` (configuration not stated) reads 91 °C; that for `CCCCCCC(C)(C)c1ccc(C2(O)CCCNC2)c(O)c1` (configuration not stated), 147 °C.

`Cc1ccc(F)cc1C1CC(=O)CC(=O)C1` came in with a melting point of 175 to 176 °C. `O=C(O)Cc1c(C(=O)c2ncc[nH]2)[nH]c2cc(Cl)ccc12`: the melting point was 252 to 253 °C. Regarding `C[C@@H]1S[C@@H](C(=O)Nc2ccc(CN3C(=O)COC3=O)cc2)Cc2cc3c(cc2C1=O)OCO3`, the melting point is 240 to 242 °C.

`O=c1c2ccc(Cl)cc2n(Cc2ccccc2)c(=O)n1S(=O)(=O)c1ccc(Cl)cc1`: the melting point fell in the range of 242 to 244 °C. The figure for `CC(=Cc1ccc(C(=O)O)cc1)c1cc2c(cc1C)C(C)(C)CCC2(C)C` is 91 to 92 °C; for `COc1ccc(C2CCCCC2)cc1-c1csc(NC(=O)C2CCN(C(=O)c3cnccn3)CC2)n1` it is 129 °C. The result for `CC(=CCOc1ccc(OC(C)(C)C(=O)O)cc1)c1ccc(-c2ccccc2)cc1` reads 148 to 150 °C. The figure for `CS(=O)(=O)C(=C1CN(C(c2ccccc2)c2ccccc2)C1)c1cc(Cl)cc(Cl)c1` is 204 °C; for `Cc1noc(C)c1-c1ccc(OC2SCC(O)C(O)C2O)cc1` (configuration not stated) it is 175 to 179 °C.

In the case of `Cc1ccc(S(=O)(=O)N(c2ccc(C#N)cc2[N+](=O)[O-])C(C)C)cc1`, the melting point fell in the range of 125 to 126 °C. `CCC1(COc2ccc(C=CC(=O)O)cc2)COC1` returned a melting point of 128 °C.

As for `O=C(CN1C(=O)C(NC(=O)n2ccnc2)N=C(c2ccccc2F)c2ccccc21)N1CC2CCC(CC2)C1` (racemic), the melting point lay in the range of 235 to 237 °C. The result for `CC(C)(C)Nc1c(NCc2ccccc2F)c(=O)c1=O` reads 260 to 262 °C; that for `CCOC(=O)Cc1ccc(-c2nc(COc3cc(CO)on3)c(C)o2)cc1`, 116 to 117 °C. The figure for `COc1ccc2c(c1)C1CCN(C)C(C1)N2C` (configuration not stated) is 72 to 73.5 °C. Consider `O=c1c2c(c3ccccc3n1-c1ccccc1)OCC2`, for which the melting point lay within 195 to 197 °C. The result for `Cc1nnc(-c2ccc3occ(-c4ccc(S(C)(=O)=O)c(C)c4)c3c2)o1` reads 173 to 174 °C; that for `CCn1nc(C(C)(F)F)nc1Cc1ccc(-c2ccccc2-c2nnn[nH]2)nc1`, 103 to 104 °C. On to `CC1(c2ccccc2)SCN=C1COc1ccc(C#N)cn1` (configuration not stated), for which the melting point was 124 to 125 °C. The result for `CCCc1c2nc(C(=O)OC)cc(Cl)c2cc2c(=O)cc(C(=O)OCC)oc12` reads 176 to 178 °C. With `CCN(c1ccc(F)cc1[N+](=O)[O-])S(=O)(=O)c1ccc(C)cc1`, the melting point was in the range of 93 to 94.5 °C.

As to `NC1CCNC(c2cnccn2)C1` (configuration not stated), the melting point is 158 to 160 °C. On to `CC(C)c1nc(CCOC(=O)OCCc2nc(C(C)C)c(Sc3cc(Cl)cc(Cl)c3)n2C)n(C)c1Sc1cc(Cl)cc(Cl)c1`, for which the melting point lay in the range of 157 to 159 °C.
